# Laboratory results reported in patent US20240228446A1, “PREPARATION METHOD FOR BICYCLIC COMPOUND AND APPLICATION AS ANTIFUNGAL AGENT” (priority 2021, published 2024).
# Test system: Candida albicans ATCC MYA-2876
# Assay: Minimal inhibitory concentration (MIC) test on fungal growth (CLSI M27, yeasts)
# Format: cell-based
# Conditions: Candida albicans, 24 h, read-out: MIC Candida albicans ATCC MYA-2876
# Experimental: (§1) • RPMI1640 medium: Brand: Gibco, article number: 31800-014 • Sabouraud dextrose agar (SDA): Brand: Hope Bio, article number: HB0253-81 • Voriconazole: Brand: Adamas, article number: 22105A • Amphotericin B: Brand: AbCam, article number: ab141199
# (§2) MIC test was conducted in accordance with the guidelines and requirements of CLSI M27 (for yeasts) and M38 (for Aspergillus).
# (§3) Strain preparation: The strains were inoculated 1 day in advance by streaking on SDA plates with glycerol strains stored at −80° C. The strains were cultured at 35° C. and 40 to 60% humidity for 18 to 24 hours. Streak inoculation of Aspergillus fumigatus and Cryptococcus neoformans was required to be done 3 days and 2 days in advance, respectively.
# (§4) Preparation of culture medium and compounds: The liquid culture medium RPMI was prepared with pure water, and 0.165 mol/L MOPS was added to adjust the pH to 7.0. The mixture was filtered with a 0.22 μm-membrane filter, sterilized, and stored at 4° C. (no more than 3 months). 0.85% physiological saline was sterilized at 121° C. for 30 min and then stored at room temperature (no more than 1 week). The compounds were dissolved in DMSO to 12.8 mg/mL and stored at −20° C.
# For yeast, 3 to 5 colonies were selected from the SDA plate on the day of testing and fully suspended in 5 mL of sterilized 0.85% physiological saline. The turbidity of the bacterial suspension was measured with a turbidimeter, and the turbidity was adjusted to approximately 0.2. The bacterial suspension was 50-fold and 20-fold (1000-fold in total) diluted in RPMI1640 medium, respectively, to serve as the inoculum. The final inoculum concentration was 500 to 2500 CFU/mL.
# (§5) The compound was diluted to the highest 800 μg/mL (or 400 μg/mL) with DMSO, and a 10-step 2-fold gradient dilution was performed, resulting in 11 concentrations. 2 μL of the gradient-diluted compound was transferred to the corresponding wells of a 96-well plate, and then 198 μL of the inoculum was transferred to the test plate. The plate was incubated at 35° C. for 24 hours (Aspergillus fumigatus and Cryptococcus neoformans were incubated for 48 and 72 hours, respectively).
# (§6) After the incubation, the growth of the fungi was visually observed. The lowest concentration of the compound that inhibited the growth of yeast by 50% (inhibited Aspergillus by 100%) was defined as the minimum inhibitory concentration (MIC, μg/mL). A magnifying glass or reading at OD530 nm could be used to assist in determining the MIC. Photos were taken of the test plates for record keeping.
row,SMILES,MIC [µg/mL]
1,COc1ccc(C23CC(C(F)(F)C(O)(Cn4cnnn4)c4ccc(F)cc4F)(C2)C3)cn1 (stereo not drawn) [Compound 92],0.03
2,OCC(F)(F)CNc1ccc(C23CC(C(F)(F)C(O)(Cn4cnnn4)c4ccc(F)cc4F)(C2)C3)cn1 (stereo not drawn) [Compound 104],0.03
3,OC(Cn1cnnn1)(c1ccc(F)cc1F)C(F)(F)C12CC(c3ccc(OCC(F)(F)F)cn3)(C1)C2 (stereo not drawn) [Compound 105],0.016
4,OC(Cn1cnnn1)(c1ccc(F)cc1F)C(F)(F)C12CC(c3cnc(NCC(F)(F)F)nc3)(C1)C2 (stereo not drawn) [Compound 111],0.016
5,OC(Cn1cnnn1)(c1ccc(F)cc1F)C(F)(F)C12CC(c3ccc(OCC(F)(F)F)nn3)(C1)C2 (stereo not drawn) [Compound 114],0.06

# Same assay, conditions: Candida albicans; lowest concentration inhibiting growth of yeast by 50%; 35° C., 24 hours; RPMI1640; read-out: MIC Candida albicans ATCC MYA-2876
row,SMILES,MIC [µg/mL]
1,C[C@H](C12CC(c3ccc(OC[C@H](O)C(F)(F)F)cc3)(C1)C2)[C@](O)(Cn1cncn1)c1ccc(F)cc1F (relative stereo) [Compound 125A],≤ 0.0039
2,O[C@H](COc1ccc(C23CC(C(F)(F)[C@](O)(Cn4cncn4)c4ccc(F)cc4F)(C2)C3)cc1)C(F)(F)F (relative stereo) [Compound 132A],≤ 0.0039
3,O[C@H](COc1ccc(C23CC(C(F)(F)[C@](O)(Cn4cnnn4)c4ccc(F)cc4F)(C2)C3)cc1)CC(F)(F)F (relative stereo) [Compound 142A],≤ 0.0039
4,O[C@@H](COc1ccc(C23CC(C(F)(F)[C@](O)(Cn4cnnn4)c4ccc(F)cc4F)(C2)C3)cc1)CC(F)(F)F (relative stereo) [Compound 142B],≤ 0.0039
5,O[C@H](COc1ccc(C23CC(C(F)(F)[C@](O)(Cn4cnnn4)c4ccc(F)cc4F)(C2)C3)cc1)C1CC1 (relative stereo) [Compound 144A],≤ 0.0039
6,O[C@@H](COc1ccc(C23CC(C(F)(F)[C@](O)(Cn4cnnn4)c4ccc(F)cc4F)(C2)C3)cc1)C1CC1 (relative stereo) [Compound 144B],≤ 0.0039
7,O[C@@](Cn1cncn1)(c1ccc(F)cc1F)C(F)(F)C12CC(c3ccc(OCC(F)(F)F)cc3)(C1)C2 (stereo in doubt) [Compound 2A],≤ 0.0039
8,CC(C12CC(c3ccc(OC[C@H](O)C(F)(F)F)cc3)(C1)C2)C(O)(Cn1cncn1)c1ccc(F)cc1F (stereo in doubt) [Compound 125],≤ 0.0039
9,OC(Cn1cnnn1)(c1ccc(F)cc1F)C(F)(F)C12CC(c3ccc(O[C@@H]4CCNC4)cc3)(C1)C2 (stereo partly drawn) [Compound 84],0.25
10,CN1CCOC(COc2ccc(C34CC(C(F)(F)C(O)(Cn5cnnn5)c5ccc(F)cc5F)(C3)C4)cc2)C1 (stereo not drawn) [Compound 85],0.03
11,OC(COCc1ccc(C23CC(C(F)(F)C(O)(Cn4cnnn4)c4ccc(F)cc4F)(C2)C3)cn1)C(F)(F)F (stereo not drawn) [Compound 86],0.06
12,CCOc1ccc(C23CC(C(F)(F)C(O)(Cn4cnnn4)c4ccc(F)cc4F)(C2)C3)cc1 (stereo not drawn) [Compound 87],0.016
13,CS(=O)(=O)c1ccc(C23CC(C(F)(F)C(O)(Cn4cnnn4)c4ccc(F)cc4F)(C2)C3)cc1 (stereo not drawn) [Compound 88],0.25
14,O[C@H](COc1ccc(C23CC(CC(O)(Cn4cnnn4)c4ccc(F)cc4F)(C2)C3)cc1)C(F)(F)F (stereo partly drawn) [Compound 89],0.016
15,N#Cc1ccc(C23CC(CC(O)(Cn4cncn4)c4ccc(F)cc4F)(C2)C3)cc1 (stereo not drawn) [Compound 91],≤ 0.0039
16,OC(Cn1cncn1)(c1ccc(F)cc1F)C(F)(F)C12CC(c3ccc(-n4cncn4)nc3)(C1)C2 (stereo not drawn) [Compound 95],≤ 0.0039
17,OC(COc1ccc(C23CC(C(F)(F)C(O)(Cn4cnnn4)c4ccc(F)cc4F)(C2)C3)cn1)C(F)(F)F (stereo not drawn) [Compound 97],0.0078
18,OC(CNc1ccc(C23CC(C(F)(F)C(O)(Cn4cnnn4)c4ccc(F)cc4F)(C2)C3)cn1)C(F)(F)F (stereo not drawn) [Compound 99],0.016
19,OC(CNc1ccc(C23CC(C(F)(F)C(O)(Cn4cncn4)c4ccc(F)cc4F)(C2)C3)cn1)C(F)(F)F (stereo not drawn) [Compound 100],0.0078
20,OC(Cn1cnnn1)(c1ccc(F)cc1F)C(F)(F)C12CC(c3cnc(OCC(F)(F)F)cn3)(C1)C2 (stereo not drawn) [Compound 107],0.06
21,OC(COc1cnc(C23CC(C(F)(F)C(O)(Cn4cnnn4)c4ccc(F)cc4F)(C2)C3)cn1)C(F)(F)F (stereo not drawn) [Compound 108],0.06

row,SMILES,MIC [µg/mL]
1,OC(Cn1cnnn1)(c1ccc(F)cc1F)C(F)(F)C12CC(c3cnc(OCC(F)(F)F)nc3)(C1)C2 (stereo not drawn) [Compound 110],0.06
2,OC(Cn1cnnn1)(c1ccc(F)cc1F)C(F)(F)C12CC(c3ccc(C(F)(F)F)nc3)(C1)C2 (stereo not drawn) [Compound 115],0.125
3,CN1CCN(c2ccc(C34CC(C(F)(F)C(O)(Cn5cnnn5)c5ccc(F)cc5F)(C3)C4)cn2)CC1 (stereo not drawn) [Compound 117],0.06
4,COc1nc(C23CC(C(F)(F)C(O)(Cn4cnnn4)c4ccc(F)cc4F)(C2)C3)cs1 (stereo not drawn) [Compound 119],0.06
5,OC(Cn1cnnn1)(c1ccc(F)cc1F)C(F)(F)C12CC(c3ccc(OCC4(F)COC4)nc3)(C1)C2 (stereo not drawn) [Compound 122],0.016
6,OC(Cn1ccnc1)(c1ccc(F)cc1F)C(F)(F)C12CC(c3ccc(OCC(F)(F)F)cc3)(C1)C2 (stereo not drawn) [Compound 124],0.0078
7,CC(C12CC(c3ccc(C#N)cc3)(C1)C2)C(O)(Cn1cncn1)c1ccc(F)cc1F (stereo not drawn) [Compound 126],0.016
8,OC12CC(C(F)(F)C(O)(Cn3cncn3)c3ccc(F)cc3F)(C1)C2 (stereo not drawn) [Compound 133],3
9,CCS(=O)(=O)C[C@@H](O)COc1ccc(C23CC(C(F)(F)C(O)(Cn4cnnn4)c4ccc(F)cc4F)(C2)C3)cc1 (stereo partly drawn) [Compound 139],0.06
10,CS(=O)(=O)CC(O)COc1ccc(C23CC(C(F)(F)C(O)(Cn4cnnn4)c4ccc(F)cc4F)(C2)C3)cc1 (stereo not drawn) [Compound 141],0.06
11,OC(COc1ccc(C23CC(C(F)(F)C(O)(Cn4cnnn4)c4ccc(F)cc4F)(C2)C3)cc1)C1(O)COC1 (stereo not drawn) [Compound 146],0.06
12,OC1(COc2ccc(C34CC(C(F)(F)C(O)(Cn5cnnn5)c5ccc(F)cc5F)(C3)C4)cc2)CC1 (stereo not drawn) [Compound 147],0.016
13,N#CC1(COc2ccc(C34CC(C(F)(F)C(O)(Cn5cnnn5)c5ccc(F)cc5F)(C3)C4)cc2)CC1 (stereo not drawn) [Compound 148],0.016
14,OC1(COc2ccc(C34CC(C(F)(F)C(O)(Cn5cnnn5)c5ccc(F)cc5F)(C3)C4)cc2)COC1 (stereo not drawn) [Compound 150],0.03
15,OC(COc1ccc(C23CC(C(F)(F)C(O)(Cn4cnnn4)c4ccc(F)cc4F)(C2)C3)cc1)C1COC1 (stereo not drawn) [Compound 152],0.0078
16,OC(Cn1cnnn1)(c1ccc(F)cc1F)C(F)(F)C12CC(c3ccc(COC(F)F)cc3)(C1)C2 (stereo not drawn) [Compound 159],0.0078
17,OC(Cn1cnnn1)(c1ccc(F)cc1F)C(F)(F)C12CC(c3ccc(COCC(F)(F)F)cc3)(C1)C2 (stereo not drawn) [Compound 160],0.016
18,OC(Cn1cnnn1)(c1ccc(F)cc1F)C(F)(F)C12CC(c3ccc(CNCC(F)(F)F)cc3)(C1)C2 (stereo not drawn) [Compound 161],0.016
19,CN1CCN(c2ccc(C34CC(C(F)(F)C(O)(Cn5cnnn5)c5ccc(F)cc5F)(C3)C4)cc2)CC1 (stereo not drawn) [Compound 162],0.03
20,O=S1(=O)CCC(c2ccc(C34CC(C(F)(F)C(O)(Cn5cnnn5)c5ccc(F)cc5F)(C3)C4)cc2)CC1 (stereo not drawn) [Compound 163],0.0078
21,O[C@@H](COc1ccc(C23CC(C(F)(F)[C@](O)(Cn4cnnn4)c4cc(F)ccc4F)(C2)C3)cc1)C(F)(F)F [Compound 166A],0.06

# Same assay, conditions: lowest concentration inhibiting growth of yeast by 50%; 35° C., 24 hours; RPMI1640
row,SMILES,MIC Candida albicans ATCC MYA-2876 [µg/mL]
1,OC(Cn1cnnn1)(c1ccc(F)cc1F)C(F)(F)C12CC(C3=CCN(CC(F)(F)F)CC3)(C1)C2 (stereo not drawn) [Compound 118],0.0078
2,OC(Cn1cnnn1)(c1ccc(F)cc1F)C(F)(F)C12CC(c3cnn(CC(F)(F)F)c3)(C1)C2 (stereo not drawn) [Compound 120],0.125

# Test system: Aspergillus fumigatus ATCC MYA-4609
# Assay: Minimal inhibitory concentration (MIC) test on fungal growth (CLSI M38, Aspergillus)
# Format: cell-based
# Conditions: Aspergillus fumigatus; lowest concentration inhibiting Aspergillus by 100%; 35° C., 48 hours; RPMI1640; read-out: MIC Aspergillus fumigatus ATCC MYA-4609
# Experimental: as §1, §2, §3, §4
# For Aspergillus, 5 mL of physiological saline was added to cover the mycelium, and the spores were gently scraped off with a spreader. The spore suspension was then transferred to a sterile test tube. An appropriate amount of spore suspension was taken and counted under a microscope using a hemocytometer. Spore concentration was adjusted to approximately 0.4 to 5×10^4 spores/mL using RPMI1640 medium.
# as §5, §6
row,SMILES,MIC [µg/mL]
1,C[C@H](C12CC(c3ccc(OC[C@H](O)C(F)(F)F)cc3)(C1)C2)[C@](O)(Cn1cncn1)c1ccc(F)cc1F (relative stereo) [Compound 125A],0.5
2,O[C@H](COc1ccc(C23CC(C(F)(F)[C@](O)(Cn4cncn4)c4ccc(F)cc4F)(C2)C3)cc1)C(F)(F)F (relative stereo) [Compound 132A],0.5
3,O[C@H](COc1ccc(C23CC(C(F)(F)[C@](O)(Cn4cnnn4)c4ccc(F)cc4F)(C2)C3)cc1)CC(F)(F)F (relative stereo) [Compound 142A],4
4,O[C@@H](COc1ccc(C23CC(C(F)(F)[C@](O)(Cn4cnnn4)c4ccc(F)cc4F)(C2)C3)cc1)CC(F)(F)F (relative stereo) [Compound 142B],4
5,O[C@H](COc1ccc(C23CC(C(F)(F)[C@](O)(Cn4cnnn4)c4ccc(F)cc4F)(C2)C3)cc1)C1CC1 (relative stereo) [Compound 144A],2
6,O[C@@H](COc1ccc(C23CC(C(F)(F)[C@](O)(Cn4cnnn4)c4ccc(F)cc4F)(C2)C3)cc1)C1CC1 (relative stereo) [Compound 144B],4
7,O[C@@](Cn1cncn1)(c1ccc(F)cc1F)C(F)(F)C12CC(c3ccc(OCC(F)(F)F)cc3)(C1)C2 (stereo in doubt) [Compound 2A],1
8,CC(C12CC(c3ccc(OC[C@H](O)C(F)(F)F)cc3)(C1)C2)C(O)(Cn1cncn1)c1ccc(F)cc1F (stereo in doubt) [Compound 125],1
